Data: patent US11186564B2, “Dual NAV1.2/5HT2a inhibitors for treating CNS disorders” (Sunovion Pharmaceuticals Inc., priority 2016, dated 2021)
Where a name gives a salt, the structure may show the parent alone.

What was measured:
[1] = target: human sodium channel NaV1.2 (Homo sapiens, UniProt Q99250); experiment: NaV1.2 inhibition, automated patch-clamp (Q-Patch HTX), slow inactivated state (state C); assay type: cell-based; conditions: hNaV1.2 CHO cells, slow inactivated state; for IC50: read-out: NaV1.2 IC50; for inhibition at 10 µM: 10 μM compound, read-out: NaV1.2 (% inh), 10 μM; for inhibition at 1 µM: 1 μM compound, read-out: NaV1.2 (% inh), 1 μM
human sodium channel NaV1.2, sequence (Q99250 whole entry): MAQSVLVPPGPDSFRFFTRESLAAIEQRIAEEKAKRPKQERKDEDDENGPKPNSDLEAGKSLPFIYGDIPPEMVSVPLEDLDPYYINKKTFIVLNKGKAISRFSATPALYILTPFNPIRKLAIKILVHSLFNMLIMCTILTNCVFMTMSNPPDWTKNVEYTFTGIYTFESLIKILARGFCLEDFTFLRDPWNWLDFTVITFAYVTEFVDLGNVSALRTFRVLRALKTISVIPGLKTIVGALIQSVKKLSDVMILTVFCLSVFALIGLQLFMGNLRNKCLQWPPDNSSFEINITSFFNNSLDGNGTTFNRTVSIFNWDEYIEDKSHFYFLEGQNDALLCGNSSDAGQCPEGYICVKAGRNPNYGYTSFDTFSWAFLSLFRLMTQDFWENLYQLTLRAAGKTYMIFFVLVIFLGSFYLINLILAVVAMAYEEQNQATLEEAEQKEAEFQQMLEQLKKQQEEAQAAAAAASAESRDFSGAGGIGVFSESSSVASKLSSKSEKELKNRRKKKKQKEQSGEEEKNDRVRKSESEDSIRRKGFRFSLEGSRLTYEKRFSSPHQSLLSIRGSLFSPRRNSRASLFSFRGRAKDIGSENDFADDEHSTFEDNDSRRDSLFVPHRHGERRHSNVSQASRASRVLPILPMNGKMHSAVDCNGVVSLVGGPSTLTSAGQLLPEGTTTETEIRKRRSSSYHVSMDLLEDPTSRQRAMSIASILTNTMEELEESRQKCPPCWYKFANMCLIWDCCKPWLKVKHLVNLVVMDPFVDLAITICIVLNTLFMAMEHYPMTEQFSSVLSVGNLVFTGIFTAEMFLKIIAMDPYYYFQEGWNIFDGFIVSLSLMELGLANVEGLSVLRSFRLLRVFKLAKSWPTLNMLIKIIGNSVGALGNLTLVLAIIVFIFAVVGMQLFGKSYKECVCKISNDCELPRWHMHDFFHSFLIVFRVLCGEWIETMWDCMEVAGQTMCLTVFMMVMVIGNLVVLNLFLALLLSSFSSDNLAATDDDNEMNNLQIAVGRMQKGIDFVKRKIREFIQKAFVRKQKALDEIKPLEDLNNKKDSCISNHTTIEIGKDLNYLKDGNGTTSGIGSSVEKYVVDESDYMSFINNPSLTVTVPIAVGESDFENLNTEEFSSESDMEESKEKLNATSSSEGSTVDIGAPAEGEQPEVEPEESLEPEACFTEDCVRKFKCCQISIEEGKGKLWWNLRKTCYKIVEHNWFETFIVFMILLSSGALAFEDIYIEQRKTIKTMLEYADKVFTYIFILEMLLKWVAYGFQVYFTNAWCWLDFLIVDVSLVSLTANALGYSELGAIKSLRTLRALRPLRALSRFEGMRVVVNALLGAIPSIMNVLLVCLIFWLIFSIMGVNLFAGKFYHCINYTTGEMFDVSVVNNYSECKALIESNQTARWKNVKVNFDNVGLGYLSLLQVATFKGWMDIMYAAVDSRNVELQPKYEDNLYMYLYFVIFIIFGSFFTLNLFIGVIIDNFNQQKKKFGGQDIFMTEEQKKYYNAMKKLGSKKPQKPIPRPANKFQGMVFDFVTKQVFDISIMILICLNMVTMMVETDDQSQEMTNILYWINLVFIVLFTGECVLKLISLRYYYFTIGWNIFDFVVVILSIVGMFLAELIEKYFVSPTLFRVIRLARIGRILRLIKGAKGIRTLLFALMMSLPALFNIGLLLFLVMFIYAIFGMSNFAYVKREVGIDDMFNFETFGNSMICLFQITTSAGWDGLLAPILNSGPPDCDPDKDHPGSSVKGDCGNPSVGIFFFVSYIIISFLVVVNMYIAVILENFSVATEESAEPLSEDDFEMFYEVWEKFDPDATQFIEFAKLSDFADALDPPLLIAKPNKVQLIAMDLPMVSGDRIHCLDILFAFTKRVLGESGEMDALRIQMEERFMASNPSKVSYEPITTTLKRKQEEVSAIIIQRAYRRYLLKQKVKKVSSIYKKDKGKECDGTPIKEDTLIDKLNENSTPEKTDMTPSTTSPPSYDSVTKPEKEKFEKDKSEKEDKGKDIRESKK
Method in brief: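 IC50 comes from a least-squares fit of percent inhibition, relative to vehicle, of current in the slow-inactivated state. That state is reached by a 10 s prepulse to −50 mV, then 15 ms at −90 mV, then a 5 ms test pulse to 0 mV. Human NaV1.2 in stable CHO K-1 cells, held at −100 mV, automated patch clamp.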

[2] = target: T1, recombinant human serotonin receptor 5-HT2A (Homo sapiens, UniProt P28223); experiment: 5-HT2A antagonist Ca2+ assay in CHO-K1 cells (method A aequorin luminescence / method B FLIPR fluorescence); assay type: cell-based; conditions: antagonist mode vs EC80 of reference agonist, method A or B, read-out: 5HT2A IC50
T1 construct: expressed in transfected cells; method B: loaded with Ca2+ dye
T1 sequence (P28223 whole entry): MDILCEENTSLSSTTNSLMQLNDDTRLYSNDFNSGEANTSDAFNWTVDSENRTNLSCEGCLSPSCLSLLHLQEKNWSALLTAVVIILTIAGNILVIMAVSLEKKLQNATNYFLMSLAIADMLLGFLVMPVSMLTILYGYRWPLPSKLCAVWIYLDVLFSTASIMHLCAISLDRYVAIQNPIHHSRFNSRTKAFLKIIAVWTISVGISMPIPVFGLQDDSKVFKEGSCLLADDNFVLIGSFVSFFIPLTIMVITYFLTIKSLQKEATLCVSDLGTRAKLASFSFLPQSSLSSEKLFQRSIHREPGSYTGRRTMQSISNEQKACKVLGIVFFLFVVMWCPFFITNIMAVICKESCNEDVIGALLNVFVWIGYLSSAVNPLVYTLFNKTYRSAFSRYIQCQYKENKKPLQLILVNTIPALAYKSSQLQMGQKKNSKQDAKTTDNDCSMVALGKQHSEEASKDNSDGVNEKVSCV
Method in brief: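 IC50 was obtained by nonlinear regression of percent inhibition of the EC80 agonist Ca2+ response in CHO-K1 cells stably expressing human 5-HT2A. The readout was aequorin luminescence with agonist injected 15 min after compound (A), or Ca2+-dye fluorescence on FLIPR with serotonin as agonist (B).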

SMILES	IC50 [1] [nM]	IC50 [2] [nM]	inhibition at 10 µM [1] [%]	inhibition at 1 µM [1] [%]
COc1ccc2c(c1)C(CN1CCC(Oc3ccc(F)cc3)CC1)CC2 (stereo not shown) [Example 113, 4-(4-fluorophenoxy)-1-((6-methoxy-2,3-dihydro-1H-inden-1-yl)methyl)piperidine hydrochloride]	550	2		
O=C1c2ccncc2CCN1CCN1CCC(Oc2ccc(F)cc2)CC1 [Example 203, 2-(2-(4-(4-fluorophenoxy)piperidin-1-yl)ethyl)-3,4-dihydro-2,6-naphthyridin-1(2H)-one]		70	14	
COc1ccc2c(c1)C(CN1CCC3(CC1)OCc1ccccc13)CC2 (stereo not shown) [Example 390, 1′-((6-methoxy-2,3-dihydro-1H-inden-1-yl)methyl)-3H-spiro[isobenzofuran-1,4′-piperidine]]	590	750		
COc1ccc2c(c1)C(CN1CCC(Oc3ccccc3C#N)CC1)CC2 (stereo not shown) [Example 98, 2-((1-((6-methoxy-2,3-dihydro-1H-inden-1-yl)methyl)piperidin-4-yl)oxy)benzonitrile]		10		37
Fc1ccc(OC2CCN(CCC3CCc4ncccc43)CC2)cc1 (stereo not shown) [Example 172, 5-(2-(4-(4-fluorophenoxy)piperidin-1-yl)ethyl)-6,7-dihydro-5H-cyclopenta[b]pyridine]		120		34
Fc1ccc(OC2CCN(CC3COCc4ccccc43)CC2)cc1 (stereo not shown) [Example 160, 4-(4-fluorophenoxy)-1-(isochroman-4-ylmethyl)piperidine]		130		32
Fc1ccc(OCCCN2CCN(c3nsc4ccccc34)CC2)cc1 [Example 73, 3-(4-(3-(4-fluorophenoxy)propyl)piperazin-1-yl)benzo[d]isothiazole]		2	91	
c1ccc(N2C[C@@H]3C[C@H]2CN3CC2CCc3ccccc32)cc1 (stereo partly drawn) [Example 303, (1S,4S)-2-((2,3-dihydro-1H-inden-1-yl)methyl)-5-phenyl-2,5-diazabicyclo[2.2.1]heptane]	1820	2600		
O[C@@H](CCN1CCC(Oc2ccccc2)CC1)c1ccccc1 [Example 228, (S)-3-(4-phenoxypiperidin-1-yl)-1-phenylpropan-1-ol]		140	52	
O=C1c2ccccc2CCN1CCN1CCC(Oc2cccc(Cl)c2)CC1 [Example 194, 2-(2-(4-(3-chlorophenoxy)piperidin-1-yl)ethyl)-3,4-dihydroisoquinolin-1(2H)-one]	230	110		
c1ccc2c(c1)CCC1(CN(CC3CCc4ccccc43)C1)O2 (stereo not shown) [Example 385, 1-((2,3-dihydro-1H-inden-1-yl)methyl)spiro[azetidine-3,2′-chromane]]		540		16
CC(C1CCc2ccccc21)N1CCC(Oc2ccc(F)cc2)CC1 (stereo not shown) [Example 123, 1-(1-(2,3-dihydro-1H-inden-1-yl)ethyl)-4-(4-fluorophenoxy)piperidine]		440		71
Fc1ccc(OC2COCCN(CC3CCc4ccccc43)C2)cc1 (stereo not shown) [Example 276, 4-((2,3-dihydro-1H-inden-1-yl)methyl)-6-(4-fluorophenoxy)-1,4-oxazepane]	440	400		
OC1(CN2CCC(Oc3ccc(F)cc3)CC2)COCc2ccccc21 (stereo not shown) [Example 159, 4-((4-(4-fluorophenoxy)piperidin-1-yl)methyl)isochroman-4-ol]		20	77	
OC(CO[C@H]1CCc2ccccc21)CN1CC[C@@H](Oc2ccc(F)cc2)C1 (stereo partly drawn) [Example 42, 1-(((S)-2,3-dihydro-1H-inden-1-yl)oxy)-3-((R)-3-(4-fluorophenoxy)pyrrolidin-1-yl)propan-2-ol]	750	830		
COc1ccc2c(c1)C(CN1CC3CC(C1)N(c1ccccc1)C3)CC2 (stereo not shown) [Example 328, 3-((6-methoxy-2,3-dihydro-1H-inden-1-yl)methyl)-6-phenyl-3,6-diazabicyclo[3.2.1]octane]		5310		31
c1ccc(N2CCN(CC3CCc4ccccc43)CC2)cc1 (stereo not shown) [Example 55, 1-((2,3-dihydro-1H-inden-1-yl)methyl)-4-phenylpiperazine]	4120	10		
OC(COC1CCCCc2ccccc21)CN1CCC(Oc2ccccc2)CC1 (stereo not shown) [Example 240, 1-(4-phenoxypiperidin-1-yl)-3-((6,7,8,9-tetrahydro-5H-benzo[7]annulen-5-yl)oxy)propan-2-ol]	960	110		
Fc1ccc(OC2CCN(CC3Cc4cccnc4C3)CC2)cc1 (stereo not shown) [Example 155, 6-((4-(4-fluorophenoxy)piperidin-1-yl)methyl)-6,7-dihydro-5H-cyclopenta[b]pyridine dihydrochloride]	1000	40		

SMILES	IC50 [1] [nM]	IC50 [2] [nM]	inhibition at 10 µM [1] [%]	inhibition at 1 µM [1] [%]
COc1ccc2c(c1)C(CN1CCC(NS(=O)(=O)c3ccc(F)cc3)CC1)CC2 (stereo not shown) [Example 250, 4-fluoro-N-(1-((6-methoxy-2,3-dihydro-1H-inden-1-yl)methyl)piperidin-4-yl)benzenesulfonamide]	200	70		
O=C1c2ccccc2CCN1CCN1CC[C@@H](Oc2ccc(F)cc2)C1 [Example 25, (R)-2-(2-(3-(4-fluorophenoxy)pyrrolidin-1-yl)ethyl)-3,4-dihydroisoquinolin-1(2H)-one]		170	83	
COc1ccccc1N1CCC2(CCN(CC3CCc4ccccc43)C2)C1 (stereo not shown) [Example 335, 2-((2,3-dihydro-1H-inden-1-yl)methyl)-7-(2-methoxyphenyl)-2,7-diazaspiro[4.4]nonane]	120	40		
Nc1ccc2c(c1)C(CN1CCC(Oc3ccc(F)cc3)CC1)CC2 (stereo not shown) [Example 115, 3-((4-(4-fluorophenoxy)piperidin-1-yl)methyl)-2,3-dihydro-1H-inden-5-amine]	2580	< 1		
COc1ccc2c(c1)C(CN1CCC3(CCc4ccccc4O3)CC1)CC2 (stereo not shown) [Example 402, 1′-((6-methoxy-2,3-dihydro-1H-inden-1-yl)methyl)spiro[chromane-2,4′-piperidine]]	70	1070		
c1ccc2c(c1)CCC1(CCN(CC3Cc4cccnc4C3)CC1)O2 (stereo not shown) [Example 411, 1′-((6,7-dihydro-5H-cyclopenta[b]pyridin-6-yl)methyl)spiro[chromane-2,4′-piperidine]]		1200		37
COc1cccc(OCCN2CCC(Oc3ccccc3)CC2)c1 [Example 224, 1-(2-(3-methoxyphenoxy)ethyl)-4-phenoxypiperidine]		170	81	
c1ccc(OCCN2CCN(c3nsc4ccccc34)CC2)cc1 [Example 70, 3-(4-(2-phenoxyethyl)piperazin-1-yl)benzo[d]isothiazole]	1700	4		
Clc1cccc(N2CCN(CCc3ccccc3)CC2)c1 [Example 64, 1-(3-chlorophenyl)-4-phenethylpiperazine]		40	93	
OC(CO[C@@H]1CCc2ccccc21)CN1CC[C@@H](Oc2ccc(F)cc2)C1 (stereo partly drawn) [Example 44, 1-(((R)-2,3-dihydro-1H-inden-1-yl)oxy)-3-((R)-3-(4-fluorophenoxy)pyrrolidin-1-yl)propan-2-ol]	240	140		
O=C1Nc2ccccc2CC12CCN(C[C@H](O)COc1ccccc1)CC2 [Example 445, (S)-1-(2-hydroxy-3-phenoxypropyl)-1′,4′-dihydro-2′H-spiro[piperidine-4,3′-quinolin]-2′-one]		300		-2
N#Cc1ccccc1OC1CCN(CC2CCOc3ccccc32)CC1 (stereo not shown) [Example 161, 2-((1-(chroman-4-ylmethyl)piperidin-4-yl)oxy)benzonitrile]		50		12
COc1ccccc1OC1CCN(CC2CCOc3ccccc32)CC1 (stereo not shown) [Example 162, 1-(chroman-4-ylmethyl)-4-(2-methoxyphenoxy)piperidine]		90		32
C1=C(c2ccccc2)COC12CN(CC1CCc3ccccc31)C2 (stereo not shown) [Example 358, 2-((2,3-dihydro-1H-inden-1-yl)methyl)-7-phenyl-5-oxa-2-azaspiro[3.4]oct-7-ene]	> 10000	870		
COc1ccccc1OC1CCN(CC2c3ccccc3CC2(C)C)CC1 (stereo not shown) [Example 100]	2600	710		
c1ccc(O[C@H]2COC3(CCN(C[C@@H]4CCc5ccccc54)CC3)C2)cc1 (single isomer, unassigned) [Compound 382]	1210	60		
Fc1ccc(O[C@@H]2CCN(CC3CCc4ncccc43)C2)cc1 (stereo partly drawn) [Example 3, 5-(((R)-3-(4-fluorophenoxy)pyrrolidin-1-yl)methyl)-6,7-dihydro-5H-cyclopenta[b]pyridine]		1880		-5
COc1ccccc1OC1CCN(CC2Cc3ccccc3C2)[C@@H](C)C1 (single isomer, unassigned) [Example 147]	1530	70		
O[C@@H](COC1CCCCC1)CN1C[C@@H]2C[C@H]1CN2Cc1ccccc1 [Example 308, (R)-1-((1S,4S)-5-benzyl-2,5-diazabicyclo[2.2.1]heptan-2-yl)-3-(cyclohexyloxy)propan-2-ol]		4020	27	
